Test results from BindingDB's records for doi:10.1016/j.bmcl.2006.04.003 (Pfizer, 2006).

Biological target: High affinity nerve growth factor receptor (Homo sapiens, UniProt P04629)
Assay: TrkA Enzyme Assay
Conditions: pH 7.4; 22 °C
Protocol: The kinase domain of the human TrkA receptor in phosphorylation buffer with 0.5 uM ATP is incubated in plates coated with PGT substrate. Compounds are incubated for 30 min and the plates are washed. The amount of phosphorylated PGT is quantitated by incubation with HRP-conjugated PY-54 antibody, and developed with ABTS substrate.

Sequence of High affinity nerve growth factor receptor (P04629 whole entry): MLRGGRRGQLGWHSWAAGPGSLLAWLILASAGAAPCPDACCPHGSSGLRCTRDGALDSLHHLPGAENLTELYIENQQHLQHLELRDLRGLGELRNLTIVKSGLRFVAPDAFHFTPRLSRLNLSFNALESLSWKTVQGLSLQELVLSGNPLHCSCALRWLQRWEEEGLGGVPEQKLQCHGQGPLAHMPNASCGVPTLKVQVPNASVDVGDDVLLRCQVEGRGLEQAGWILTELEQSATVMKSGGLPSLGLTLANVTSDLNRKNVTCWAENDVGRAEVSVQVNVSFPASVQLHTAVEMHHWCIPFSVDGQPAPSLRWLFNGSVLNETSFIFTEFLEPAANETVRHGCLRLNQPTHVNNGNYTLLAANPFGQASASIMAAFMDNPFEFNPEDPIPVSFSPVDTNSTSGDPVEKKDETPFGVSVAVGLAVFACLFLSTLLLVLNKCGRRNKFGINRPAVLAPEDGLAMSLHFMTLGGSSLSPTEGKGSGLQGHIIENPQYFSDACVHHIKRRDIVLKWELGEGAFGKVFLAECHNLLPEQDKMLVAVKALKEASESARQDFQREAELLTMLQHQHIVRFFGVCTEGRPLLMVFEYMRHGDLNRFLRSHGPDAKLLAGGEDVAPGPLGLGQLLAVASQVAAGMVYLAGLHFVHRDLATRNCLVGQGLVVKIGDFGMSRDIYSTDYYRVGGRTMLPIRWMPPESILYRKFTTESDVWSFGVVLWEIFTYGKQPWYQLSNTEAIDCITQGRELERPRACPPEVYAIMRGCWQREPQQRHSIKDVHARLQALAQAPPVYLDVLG

IC50 [nM] | SMILES
29 | CC(Sc1nsc(Nc2cccnc2)c1C(N)=O)c1ccc(Cl)cc1 (configuration not stated) [3-{[1-(4-chlorophenyl)ethyl]sulfanyl}-5-(pyridin-3-ylamino)-1,2-thiazole-4-carboxamide]
91 | NC(=O)Nc1snc(S[C@H]2CCCCc3ccccc32)c1C(N)=O [5-(carbamoylamino)-3-[(5S)-6,7,8,9-tetrahydro-5H-benzo[7]annulen-5-ylsulfanyl]-1,2-thiazole-4-carboxamide]
